Where two headings read alike, the source gives them in different places.
What was measured:
Escherichia coli NIHTC-2 = test: MIC, agar dilution method, pH 7.2; format: cell-based; conditions: NIHTC2; pH 7.2; Escherichia coli NIHTC-2; read-out: Minimum inhibition concentration (MIC)
Description: (§1) Measurement was carried out according to the agar dilution method, using a medium of pH 8.0, or the Japanese Antibiotic Medicament Standard, using a medium of pH 7.2 Units are in mcg/ml.

[1] = test system: Eschericihia coli GN2411-5; test: MIC, agar dilution method, pH 7.2; format: cell-based; conditions: Escherichia coli; pH 7.2; E. coli GN2411-5; read-out: Minimum inhibition concentration (MIC)
Description: as §1

[2] = test system: Klebsiella pneumoniae KY4274; test: MIC, agar dilution method, pH 7.2; format: cell-based; conditions: pH 7.2; Klebsiella pneumoniae KY4274; read-out: Minimum inhibition concentration (MIC)
Description: as §1

Proteus vulgaris JJ = test: MIC, agar dilution method, pH 7.2; format: cell-based; conditions: pH 7.2; Proteus vulgaris JJ; read-out: Minimum inhibition concentration (MIC)
Description: as §1

[3] = test system: Pseudomonas aeruginosa BMH# 1; test: MIC, agar dilution method, pH 7.2; format: cell-based; conditions: pH 7.2; Pseudomonas aeruginosa BMH# 1; read-out: Minimum inhibition concentration (MIC)
Description: as §1

[4] = test system: Pseudomonas aeruginosa UCLA 4184; test: MIC, agar dilution method, pH 7.2; format: cell-based; conditions: UCLA4184; pH 7.2; Pseudomonas aeruginosa UCLA 4184; read-out: Minimum inhibition concentration (MIC)
Description: as §1

[5] = test system: Salmonella enteritidis G-14; test: MIC, agar dilution method, pH 7.2; format: cell-based; conditions: Salmonella enterica; pH 7.2; Salmonella enteritidis G-14; read-out: Minimum inhibition concentration (MIC)
Description: as §1

Shigella sonnei ATCC9290 = test: MIC, agar dilution method, pH 7.2; format: cell-based; conditions: read-out: Minimum inhibition concentration (MIC)
Description: as §1

[6] = test system: Staphylococcus aureus 209-P; test: MIC, agar dilution method, pH 7.2; format: cell-based; conditions: pH 7.2; Staphylococcus aureus 209-P; read-out: Minimum inhibition concentration (MIC)
Description: as §1

[7] = test system: Staphylococcus aureus Smith (A); test: MIC, agar dilution method, pH 7.2; format: cell-based; conditions: pH 7.2; Staphylococcus aureus Smith (A); read-out: Minimum inhibition concentration (MIC)
Description: as §1

[8] = test system: Staphylococcus a ureus 226; test: MIC, agar dilution method, pH 7.2; format: cell-based, Staphylococcus aureus; conditions: pH 7.2; Staphylococcus aureus 226; read-out: Minimum inhibition concentration (MIC)
Description: as §1

Eschericihia coli 3100 = test: MIC, agar dilution method, pH 7.2; format: cell-based, Escherichia coli; conditions: Escherichia coli; pH 7.2; E. coli 3100; read-out: Minimum inhibition concentration (MIC)
Description: as §1

[9] = test system: Escherichia coli 57R/W677; test: MIC, agar dilution method, pH 7.2; format: cell-based; conditions: 57R/W677, pH 7.2, read-out: Minimum inhibition concentration (MIC)
Description: as §1
(§2) **1: gentamicin, producing adenylsynthetase.

Escherichia coli 76-2 = test: MIC, agar dilution method, pH 7.2; format: cell-based; conditions: Escherichia coli, 762; pH 7.2; E. coli 76-2; 1**: gentamicin, producing adenylsynthetase; read-out: Minimum inhibition concentration (MIC)
Description: as §1, §2

[10] = test system: Escherichia coli R12 Z-338; test: MIC, agar dilution method, pH 7.2; format: cell-based; conditions: R12Z338, pH 7.2, E. coli R12 Z-338, 1**: gentamicin, producing adenylsynthetase, read-out: Minimum inhibition concentration (MIC)
Description: as §1, §2

[11] = test system: Klebsiella pneumoniae 3020 Y-60; test: MIC, agar dilution method, pH 7.2; format: cell-based; conditions: 3020Y60; pH 7.2; Klebsiella pneumoniae 3020 Y-60; 1**: gentamicin, producing adenylsynthetase; read-out: Minimum inhibition concentration (MIC)
Description: as §1, §2

[12] = test system: Escherichia coli R18 KY8321; test: MIC, agar dilution method, pH 7.2; format: cell-based; conditions: R18KY8321, E. coli R18 KY8321, 2**: gentamicin, producing adenylsynthetase and neomycin phosphotransferase type II, read-out: Minimum inhibition concentration (MIC)
Description: as §1
2: gentamicin, producing adenylsynthetase and neomycin phosphotransferase

[13] = test system: Escherichia coli R17 Z343; test: MIC, agar dilution method, pH 7.2; format: cell-based; conditions: R17Z343, pH 7.2, E. coli R17 Z343, 3**: kanamycin, producing acetyltransferase, read-out: Minimum inhibition concentration (MIC)
Description: as §1
(§3) 3: kanamycin, producing acetyltransferase.

[14] = test system: Pseudomonas aeruginosa R9 KY8516; test: MIC, agar dilution method, pH 7.2; format: cell-based; conditions: R9KY8516, pH 7.2, P. aeruginosa R9 KY8516, 3**: kanamycin, producing acetyltransferase, read-out: Minimum inhibition concentration (MIC)
Description: as §1, §3

Serratia marcescens 1065 = test: MIC, agar dilution method, pH 7.2; format: cell-based; conditions: pH 7.2; Serratia marcescens 1065; 3**: kanamycin, producing acetyltransferase; read-out: Minimum inhibition concentration (MIC)
Description: as §1, §3

[15] = test system: Escherichia coli R19 KY8348; test: MIC, agar dilution method, pH 7.2; format: cell-based; conditions: R19KY8348, pH 7.2, E. coli R19 KY8348, 4**: gentamicin, producing acetyltransferase type I, read-out: Minimum inhibition concentration (MIC)
Description: as §1
(§4) 4: gentamicin, producing acetyltransferase type I.

[16] = test system: Pseudomonas aeruginosa R4 KY8511; test: MIC, agar dilution method, pH 7.2; format: cell-based; conditions: R4KY8511, pH 7.2, P. aeruginosa R4 KY8511, 4**: gentamicin, producing acetyltransferase type I, read-out: Minimum inhibition concentration (MIC)
Description: as §1, §4

[17] = test system: Escherichia coli R20 KY8349; test: MIC, agar dilution method, pH 7.2; format: cell-based; conditions: R20KY8349, pH 7.2, E. coli R20 KY8349, 5**: neomycin, producing phosphotransferase type I, read-out: Minimum inhibition concentration (MIC)
Description: as §1
5: neomycin, producing phosphotransferase type I.

[18] = test system: Pseudomonas aeruginosa R5 KY8512; test: MIC, agar dilution method, pH 7.2; format: cell-based; conditions: R5KY8512, pH 7.2, P. aeruginosa R5 KY8512, 6**: neomycin, producing phosphotransferase type I and type II, read-out: Minimum inhibition concentration (MIC)
Description: as §1
6: neomycin, producing phosphotransferase type I and type II.

Providencia sp 164 = test: MIC, agar dilution method, pH 7.2; format: cell-based; conditions: pH 7.2; Providencia sp 164; 7**: gentamicin, producing acetyltransferase type II; read-out: Minimum inhibition concentration (MIC)
Description: as §1
7: gentamicin, producing acetyltransferase type II.

[19] = test system: Staphylococcus aureus KY4279 ATCC6538P; test: MIC, agar dilution method, pH 8.0; format: cell-based
Description: as §1
S.A.: Staphylococcus aureus KY4279 ATCC6538P

Bacillus subtilis KY4273 = test: MIC, agar dilution method, pH 8.0; format: cell-based
Description: as §1
B.S.: Bacillus subtilis KY4273

[20] = test system: Eschericia coli KY4271 ATCC26; test: MIC, agar dilution method, pH 8.0; format: cell-based; conditions: Escherichia coli, ATCC26; pH 8.0; E. coli KY4271; read-out: Minimum inhibition concentration (MIC), EC
Description: as §1
E.C.: Eschericia coli KY4271 ATCC26

[21] = test system: Proteus vulgaris KY4277 ATCC6897; test: MIC, agar dilution method, pH 8.0; format: cell-based; conditions: ATCC6897; pH 8.0; Proteus vulgaris KY4277; read-out: Minimum inhibition concentration (MIC), PV
Description: as §1

[22] = test system: Shigella sonnei KY4281 ATCC9290; test: MIC, agar dilution method, pH 8.0; format: cell-based; conditions: ATCC9290; pH 8.0; Shigella sonnei KY4281; read-out: Minimum inhibition concentration (MIC), SS
Description: as §1

[23] = test system: Salmonella typhosa KY4278 ATCC9992; test: MIC, agar dilution method, pH 8.0; format: cell-based; conditions: Salmonella enterica, pH 8, read-out: Minimum inhibition concentration (MIC), ST
Description: as §1
S.T.: Salmonella typhosa KY4278 ATCC9992

[24] = test system: Klebsiella pneumoniae KY4275 ATCC10031; test: MIC, agar dilution method, pH 8.0; format: cell-based; conditions: ATCC10031; pH 8.0; Klebsiella pneumoniae KY4275; read-out: Minimum inhibition concentration (MIC), KP
Description: as §1
K.P.: Klebsiella pneumoniae KY4275 ATCC10031.

various microorganisms = test: Antibacterial activity (general statements); format: cell-based; conditions: qualitative statement
Description: as §1

[25] = Stability in alkaline aqueous conditions; format: physicochemical; conditions: pH 10, room temperature, within one hour
Description: The stability of 4-N-acylfortimicin B derivatives in aqueous alkaline conditions is poor. […] Therefore, purification of these compounds under basic conditions (for example, column chromatography with Amberlite CG-50, eluting with aqueous ammonia) is not practical.
In contrast with the instability of 4-N-acylfortimicin B derivatives, 4-N-alkylfortimicin B derivatives are so stable that no decomposition occurs even in aqueous barium hydroxide solution at reflux temperature for 18 hours. Therefore, in the case of 4-N-alkylfortimicin B, any substituents can be introduced at 4-N-position of fortimicin B, even though such substituents can not be introduced as the acyl type to such position due to the aforementioned instability.

CN[C@H]1[C@@H](O)[C@H](O[C@H]2O[C@H]([C@H](C)N)CC[C@H]2N)[C@@H](N)[C@H](O)[C@@H]1OC [Compound 1, fortimicin B]
100 µg/mL: MIC [2] | MIC [5] | MIC [7] | MIC [8] | MIC (Eschericihia coli 3100)
not as good as the other factors: Antibacterial activity (various microorganisms)
25 µg/mL: MIC [20] | MIC [21]
50 µg/mL: MIC [22] | MIC [24]
12.5 µg/mL: MIC ([19]; Staphylococcus aureus, pH 8, read-out: Minimum inhibition concentration (MIC), SA) | MIC (Bacillus subtilis KY4273; Bacillus subtilis, KY4273, pH 8, read-out: Minimum inhibition concentration (MIC), BS) | MIC [23]
> 100 µg/mL: MIC (Escherichia coli NIHTC-2) | MIC [1] | MIC (Proteus vulgaris JJ) | MIC [3] | MIC [4] | MIC (Shigella sonnei ATCC9290) | MIC [6] | MIC [9] | MIC (Escherichia coli 76-2) | MIC [10] | MIC [11] | MIC [12] | MIC [13] | MIC [14] | MIC (Serratia marcescens 1065) | MIC [15] | MIC [16] | MIC [17] | MIC [18] | MIC (Providencia sp 164)

CO[C@H]1[C@@H](O)[C@H](N)[C@@H](O[C@H]2O[C@H]([C@H](C)N)CC[C@H]2N)[C@H](O)[C@@H]1N(C)C(=O)[C@@H](O)CCN [Compound 14, 4-N-[L-(-)-γ-amino-α-hydroxybutyryl]fortimicin B]
20 µg/mL: MIC [22]
almost completely decomposed: Stability in aqueous solution [25]
2.5 µg/mL: MIC [23]
10 µg/mL: MIC [21]
5 µg/mL: MIC (Bacillus subtilis KY4273; pH 8.0, Bacillus subtilis KY4273, read-out: Minimum inhibition concentration (MIC), BS) | MIC [24]
0.63 µg/mL: MIC ([19]; pH 8.0, Staphylococcus aureus KY4279, read-out: Minimum inhibition concentration (MIC), SA) | MIC [20]

Reference: patent US4220755A, “Fortimicin B derivatives and process for production thereof” (Abbott Laboratories, priority 1976, dated 1980)
